Assay results as given in US6656962B2, “Use of amino-isoxazolidone compounds for improvement of lexical priming” (Pharmacia Corporation, priority 1994, dated 2003).

Key:
[1] = target: T1, NMDA receptor complex ([3H]TCP binding) (Rattus norvegicus, UniProt P35439); assay: Assay B: TCP Modulation Assay (stimulation of [3H]TCP binding to synaptic plasma membranes); format: biochemical
T1 construct: Triton X-100 washed synaptic plasma membranes (SPM) prepared from rat forebrain; from tissue; host or cells: rat forebrain synaptic plasma membranes (male Sprague-Dawley, 30-45 days old), Triton X-100 washed
Description: [3H]TCP binding was performed using Triton X-100 washed synaptic plasma membranes (SPM) prepared from rat forebrain (30-45 day old, male SpragueDawley; Sasco, St. Charles, Mo.) as described previously [J. W. Thomas, W. F. Hood, J. B. Monahan, P. C. Contreras and T. L. O'Donohue, Brain Res., 442, 396-398 (1988)]. […] The samples were then filtered through glass fiber filters (Schleicher and Schuell #32) which were pretreated with 0.05% (v/v) polyethylenimine. The filters were washed and the radioactivity quantitated by liquid scintillation spectrometry. […] The EC50 values for the stimulation of [3H]TCP binding were determined using a four parameter logistic regression analysis.

[2] = test system: implicit memory (priming) in Alzheimer patients; assay: Assay C: Implicit Memory Paradigm (word identification test, priming) in Alzheimer patients; format: in vivo, human; conditions: 15 mg twice daily
Source text: In this test, subjects identify words presented in a visually degraded or masked format in which only parts of each letter are shown. Subjects view several lists of these degraded words over a period of three days, some of which are repeated from day-to-day and some that are new. Learning, or what is referred to as “priming”, is shown on this test when subjects identify a larger number of repeated or old words than new words. […] The diagnosis of probable Alzheimer's disease was made according to the criteria defined by the National Institute on Neurological Disorders and Stroke Work Group [G. McKhann et al, Neurology, 34, 939-944 (1984)]. This diagnosis was based on clinical evaluation that included neuropsychological assessment, laboratory blood screening, neurolgical examination, and either a CT or MRI scan. The criteria for entry into the study was Mini-mental State Examination score between 12 and 24 inclusive [M. Folstein et al, J. Psych. Res., 12, 189-198 (1975)], Global Deterioration Scale score between 3 and 5 inclusive [B. Reisberg et al, Am. J. Psych., 139, 1136-1139 (1982)], Modified […], ischemic score of 4 or less [G. W. Small et al, J. Clin. Psych., 46, 514-517 […]], and Hamilton Psychiatric Rating Scale for Depression score of 17 or less [M. Hamilton, Neurology and Neurosurgery, 23, 56-62 (1960)]. Patients with medical, neurological, or psychiatric illnesses other than Alzheimer's disease that could account for the abnormal mental status were excluded. […] The eligibility of patients was assessed during a 28-day period before the study began. […] All unused medication was returned and counted to check for compliance in taking the drug. […] The total increase in priming was calculated by first deriving the amount of priming that occurred on each trial (i.e., difference in the proportion of old and new words identified). […] Priming is not calculated on trial 1 because from the patient's perspective there are no old words on trial 1; the words begin to repeat on the second trial.

[3] = test system: recognition memory and attention in Alzheimer patients; conditions: Alzheimer's disease patients, Searle Protocol NC6-93-06-009; cited from earlier work
[4] = oral, tenth week of treatment, Alzheimer patients

SMILES	effect on glycine stimulation of [3H]TCP binding ([1]; in the presence of glycine (0.1-0.6 μM))	patients who improved their priming scores from trial 2 to trial 9 [2, 4]	total increase in priming vs placebo (post-hoc Scheffe test) [2, 4]	linear trend in priming across trials ([2]; trials 2 to 9, Alzheimer patients)	performance on recognition memory and attentional tests [3]	Kd ([1]; basal conditions)
NC1CONC1=O (single isomer, unassigned) [D-cycloserine, 4-amino-3-isoxazolidone]	reduces the maximal level of glycine stimulation	68%	significant difference in performance	significant linear trend across trials	did not improve performance	–
c1csc(C2(N3CCCCC3)CCCCC2)c1 [[3H]TCP]	–	–	–	–	–	44 nM
